Data taken from patent US20020137929A1, “1 - (3-heterocyclylphenyl) isothiourea, -isourea, -guanidine and -amidine herbicidal agents” (Intellectual Property Department, BASF Aktiengesellschaft, priority 1998, published 2002).

Legend:
[1] = tested on: GALAP (Galium); assay: Postemergence herbicidal evaluation; type: in vivo, Galium aparine; details: postemergence
Summary of the method: (§1)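 First, seedlings were raised for around two weeks. Next, test material in 50/50 acetone/water containing 0.5% TWEEN 20 was sprayed through a nozzle at 40 psi, equivalent to about 0.0156–0.500 kg/ha. Finally, after 4–5 weeks in the greenhouse, plants were rated 0–9.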

[2] = tested on: AMBEL (Ragweed, Common); assay: Postemergence herbicidal evaluation; type: in vivo, Ambrosia artemisifolia; details: postemergence
Summary of the method: as §1

[3] = tested on: SAGPY (Arrowhead (Pygmaea)); assay: Preemergence weed control under flooded paddy conditions; type: in vivo, Sagittaria pygmaea; details: rated 3-4 weeks after treatment
Summary of the method: (§2)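 Using flooded silt loam (water 1.5 to 3 cm deep), seeds sown in the top 0.5 cm were exposed preemergence to compound pipetted into the flood at about 0.0313 to 0.500 kg/ha. Effects were scored 0-9 by eye three to four weeks later.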

[4] = tested on: ORYSAT (Rice, Tebonnet); assay: Preemergence herbicidal evaluation; type: in vivo, Oryza sativa, (L.) Tebonnet; details: rated 4-5 weeks after treatment, rating scale 0-9
Summary of the method: (§3)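 Scores (0–9) reflect visual comparison with control plants for stand, vigor, malformation, size and chlorosis. Compound was applied to the soil after sowing, before emergence, as an aqueous acetone spray (about 0.0156–0.500 kg/ha), and cups were kept in a greenhouse for 4–5 weeks.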

[5] = tested on: GLXMAW (Soybean, Williams); assay: Postemergence herbicidal evaluation; type: in vivo, Glycine max, (L.) Merr. cv Williams; details: postemergence
Summary of the method: as §1

[6] = tested on: SETVI (Foxtail, Green); assay: Preemergence herbicidal evaluation; type: in vivo, Setaria viridis; details: rated 4-5 weeks after treatment, rating scale 0-9
Summary of the method: as §3

[7] = tested on: MOOVA (Monochoria); assay: Preemergence weed control under flooded paddy conditions; type: in vivo, Monochoria vaginalis; details: rated 3-4 weeks after treatment
Summary of the method: as §2

[8] = tested on: CASOB (Sicklepod); assay: Postemergence herbicidal evaluation; type: in vivo, Cassia obtusifolia; details: postemergence
Summary of the method: as §1

[9] = tested on: GALAP (Galium); assay: Preemergence herbicidal evaluation; type: in vivo, Galium aparine; details: rated 4-5 weeks after treatment, rating scale 0-9
Summary of the method: as §3

[10] = tested on: CYPSE (Flatsedge); assay: Preemergence weed control under flooded paddy conditions; type: in vivo, Cyperus serotinus; details: rated 3-4 weeks after treatment
Summary of the method: as §2

[11] = tested on: TRZAWR (Wheat, Winter, cv Riband); assay: Postemergence herbicidal evaluation; type: in vivo, Triticum aestivum; details: postemergence
Summary of the method: as §1

[12] = tested on: ECHORC (Watergrass (Calif.)); assay: Preemergence weed control under flooded paddy conditions; type: in vivo, Echinochloa oryzoides; details: rated 3-4 weeks after treatment
Summary of the method: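 Flooded-pot preemergence screen with silt loam and seeds in the upper 0.5 cm. Dose about 0.0313 to 0.500 kg/ha, delivered into flood water; visual 0-9 score after 3 to 4 weeks.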

Cn1c(C(F)(F)F)cc(=O)n(-c2cc(N=C3SCC(=O)N3Cc3cc(Cl)cc(Cl)c3)c(Cl)cc2F)c1=O [Compound 150, 3-{4-Chloro-5-{[3-(3,5-dichlorobenzyl)-4-oxo-2-thiazolidinylidene]amino}-2-fluorophenyl}-1-methyl-6-(trifluoromethyl)-2,4(1H,3H)-pyrimidinedione]
Herbicidal rating GALAP ([1]; rate 0.0156 kg/ha): 1.0 | Herbicidal rating GALAP ([1]; rate 0.0313 kg/ha): 2.0 | Herbicidal rating GALAP ([1]; rate 0.0625 kg/ha): 4.0 | Herbicidal rating AMBEL ([2]; rate 0.0156 kg/ha): 7.0 | Herbicidal rating AMBEL ([2]; rate 0.0313 kg/ha): 9.0 | Herbicidal rating AMBEL ([2]; rate 0.0625 kg/ha): 9.0 | herbicidal effect rating, SAGPY ([3]; 0.0313 kg/ha): 0.0 | herbicidal effect rating, SAGPY ([3]; 0.0625 kg/ha): 2.0 | herbicidal effect rating, SAGPY ([3]; 0.1250 kg/ha): 2.0 | herbicidal effect rating, SAGPY ([3]; 0.2500 kg/ha): 2.0 | Preemergence herbicidal rating ORYSAT ([4]; rate 0.0313 kg/ha): 0.0 | Preemergence herbicidal rating ORYSAT ([4]; rate 0.0625 kg/ha): 1.0 | Preemergence herbicidal rating ORYSAT ([4]; rate 0.1250 kg/ha): 2.0 | Preemergence herbicidal rating ORYSAT ([4]; rate 0.2500 kg/ha): 1.0 | Herbicidal rating GLXMAW ([5]; rate 0.0156 kg/ha): 5.0 | Herbicidal rating GLXMAW ([5]; rate 0.0313 kg/ha): 5.5 | Herbicidal rating GLXMAW ([5]; rate 0.0625 kg/ha): 6.0 | Preemergence herbicidal rating SETVI ([6]; rate 0.0313 kg/ha): 0.0 | Preemergence herbicidal rating SETVI ([6]; rate 0.0625 kg/ha): 0.0 | Preemergence herbicidal rating SETVI ([6]; rate 0.1250 kg/ha): 4.0 | Preemergence herbicidal rating SETVI ([6]; rate 0.2500 kg/ha): 9.0 | herbicidal effect rating, MOOVA ([7]; 0.0313 kg/ha): 6.0 | herbicidal effect rating, MOOVA ([7]; 0.0625 kg/ha): 9.0 | herbicidal effect rating, MOOVA ([7]; 0.1250 kg/ha): 9.0 | herbicidal effect rating, MOOVA ([7]; 0.2500 kg/ha): 9.0 | Herbicidal rating CASOB ([8]; rate 0.0156 kg/ha): 1.0 | Herbicidal rating CASOB ([8]; rate 0.0313 kg/ha): 3.0 | Herbicidal rating CASOB ([8]; rate 0.0625 kg/ha): 3.0 | Preemergence herbicidal rating GALAP ([9]; rate 0.0313 kg/ha): 0.0 | Preemergence herbicidal rating GALAP ([9]; rate 0.0625 kg/ha): 0.0 | Preemergence herbicidal rating GALAP ([9]; rate 0.1250 kg/ha): 0.0 | Preemergence herbicidal rating GALAP ([9]; rate 0.2500 kg/ha): 2.0 | herbicidal effect rating, CYPSE ([10]; 0.1250 kg/ha): 9.0 | herbicidal effect rating, CYPSE ([10]; 0.2500 kg/ha): 9.0 | Herbicidal rating TRZAWR ([11]; rate 0.0156 kg/ha): 3.5 | Herbicidal rating TRZAWR ([11]; rate 0.0313 kg/ha): 3.5 | Herbicidal rating TRZAWR ([11]; rate 0.0625 kg/ha): 3.5 | herbicidal effect rating, ECHORC ([12]; 0.0313 kg/ha): 6.0 | herbicidal effect rating, ECHORC ([12]; 0.0625 kg/ha): 7.0 | herbicidal effect rating, ECHORC ([12]; 0.1250 kg/ha): 9.0 | herbicidal effect rating, ECHORC ([12]; 0.2500 kg/ha): 9.0

Cn1c(C(F)(F)F)cc(=O)n(-c2cc(N=C3SCC(=O)N3Cc3ccc(F)cc3)c(Cl)cc2F)c1=O [Compound 151, 3-{4-Chloro-2-fluoro-5-{[3-(p-fluorobenzyl)-4-oxo-2-thiazolidinylidene]amino}phenyl}-1-methyl-6-(trifluoromethyl)-2,4(1H,3H)-pyrimidinedione]
Herbicidal rating GALAP ([1]; rate 0.0156 kg/ha): 4.0 | Herbicidal rating GALAP ([1]; rate 0.0313 kg/ha): 4.0 | Herbicidal rating GALAP ([1]; rate 0.0625 kg/ha): 6.0 | Herbicidal rating AMBEL ([2]; rate 0.0156 kg/ha): 7.0 | Herbicidal rating AMBEL ([2]; rate 0.0313 kg/ha): 7.0 | Herbicidal rating AMBEL ([2]; rate 0.0625 kg/ha): 9.0 | herbicidal effect rating, SAGPY ([3]; 0.0313 kg/ha): 0.0 | herbicidal effect rating, SAGPY ([3]; 0.0625 kg/ha): 2.0 | herbicidal effect rating, SAGPY ([3]; 0.1250 kg/ha): 8.0 | herbicidal effect rating, SAGPY ([3]; 0.2500 kg/ha): 6.0 | Preemergence herbicidal rating ORYSAT ([4]; rate 0.0156 kg/ha): 2.0 | Preemergence herbicidal rating ORYSAT ([4]; rate 0.0313 kg/ha): 5.0 | Preemergence herbicidal rating ORYSAT ([4]; rate 0.0625 kg/ha): 5.0 | Preemergence herbicidal rating ORYSAT ([4]; rate 0.1250 kg/ha): 9.0 | Preemergence herbicidal rating ORYSAT ([4]; rate 0.2500 kg/ha): 9.0 | Herbicidal rating GLXMAW ([5]; rate 0.0156 kg/ha): 4.0 | Herbicidal rating GLXMAW ([5]; rate 0.0313 kg/ha): 4.5 | Herbicidal rating GLXMAW ([5]; rate 0.0625 kg/ha): 5.5 | Preemergence herbicidal rating SETVI ([6]; rate 0.0156 kg/ha): 9.0 | Preemergence herbicidal rating SETVI ([6]; rate 0.0313 kg/ha): 9.0 | Preemergence herbicidal rating SETVI ([6]; rate 0.0625 kg/ha): 9.0 | Preemergence herbicidal rating SETVI ([6]; rate 0.1250 kg/ha): 9.0 | Preemergence herbicidal rating SETVI ([6]; rate 0.2500 kg/ha): 9.0 | herbicidal effect rating, MOOVA ([7]; 0.0313 kg/ha): 6.0 | herbicidal effect rating, MOOVA ([7]; 0.0625 kg/ha): 9.0 | herbicidal effect rating, MOOVA ([7]; 0.1250 kg/ha): 9.0 | herbicidal effect rating, MOOVA ([7]; 0.2500 kg/ha): 9.0 | Herbicidal rating CASOB ([8]; rate 0.0156 kg/ha): 2.0 | Herbicidal rating CASOB ([8]; rate 0.0313 kg/ha): 4.0 | Herbicidal rating CASOB ([8]; rate 0.0625 kg/ha): 4.0 | Preemergence herbicidal rating GALAP ([9]; rate 0.0156 kg/ha): 2.0 | Preemergence herbicidal rating GALAP ([9]; rate 0.0313 kg/ha): 4.0 | Preemergence herbicidal rating GALAP ([9]; rate 0.0625 kg/ha): 4.0 | Preemergence herbicidal rating GALAP ([9]; rate 0.1250 kg/ha): 9.0 | Preemergence herbicidal rating GALAP ([9]; rate 0.2500 kg/ha): 9.0 | herbicidal effect rating, CYPSE ([10]; 0.0625 kg/ha): 7.0 | herbicidal effect rating, CYPSE ([10]; 0.2500 kg/ha): 7.0 | Herbicidal rating TRZAWR ([11]; rate 0.0156 kg/ha): 2.5 | Herbicidal rating TRZAWR ([11]; rate 0.0313 kg/ha): 2.5 | Herbicidal rating TRZAWR ([11]; rate 0.0625 kg/ha): 4.0 | herbicidal effect rating, ECHORC ([12]; 0.0313 kg/ha): 3.0 | herbicidal effect rating, ECHORC ([12]; 0.0625 kg/ha): 5.0 | herbicidal effect rating, ECHORC ([12]; 0.1250 kg/ha): 9.0 | herbicidal effect rating, ECHORC ([12]; 0.2500 kg/ha): 9.0
